# Test results as given in PubChem BioAssay (NCI).
#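 Grown in 96-well plates, cells were treated for 48 hours with each compound at five concentrations. Insufficient inhibition: endpoint recorded as highest concentration tested. GI50 = concentration required for 50% inhibition of growth. TGI is the concentration that stops growth completely.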
# How the values were obtained:
# Experiment in all cases: NCI-60 cell line screen, 48 h
# SF-539 CNS = test system: SF-539 CNS
# KM12 colon = test system: KM12 colon
# TK-10 renal = test system: TK-10 renal
# NCI-H226 lung = test system: NCI-H226 lung
# MCF7 breast = test system: MCF7 breast
# HCC-2998 colon = test system: HCC-2998 colon
# BT-549 breast = test system: BT-549 breast
# NCI-H522 lung = test system: NCI-H522 lung
# OVCAR-3 ovarian = test system: OVCAR-3 ovarian
# DU-145 prostate = test system: DU-145 prostate
# SF-295 CNS = test system: SF-295 CNS
# SNB-19 CNS = test system: SNB-19 CNS
# HS 578T breast = test system: HS 578T breast
# SK-MEL-2 melanoma = test system: SK-MEL-2 melanoma
# MOLT-4 leukemia = test system: MOLT-4 leukemia
# HCT-15 colon = test system: HCT-15 colon
# OVCAR-5 ovarian = test system: OVCAR-5 ovarian
# NCI/ADR-RES ovarian = test system: NCI/ADR-RES ovarian
# UACC-62 melanoma = test system: UACC-62 melanoma
# T-47D breast = test system: T-47D breast
# SR leukemia = test system: SR leukemia
# MALME-3M melanoma = test system: MALME-3M melanoma
# HOP-92 NSCLC = test system: HOP-92 NSCLC
# SK-MEL-5 melanoma = test system: SK-MEL-5 melanoma
# OVCAR-8 ovarian = test system: OVCAR-8 ovarian
# SW-620 colon = test system: SW-620 colon
# 786-0 renal = test system: 786-0 renal
# RPMI-8226 leukemia = test system: RPMI-8226 leukemia
# NCI-H23 lung = test system: NCI-H23 lung
# CCRF-CEM leukemia = test system: CCRF-CEM leukemia
# COLO 205 colon = test system: COLO 205 colon
# M14 melanoma = test system: M14 melanoma
# SK-MEL-28 melanoma = test system: SK-MEL-28 melanoma
# UACC-257 melanoma = test system: UACC-257 melanoma
# HT29 colon = test system: HT29 colon
# EKVX NSCLC = test system: EKVX NSCLC
# SNB-75 CNS = test system: SNB-75 CNS
# HCT-116 colon = test system: HCT-116 colon
# HL-60(TB) leukemia = test system: HL-60(TB) leukemia
# NCI-H460 lung = test system: NCI-H460 lung
# HOP-62 NSCLC = test system: HOP-62 NSCLC
# IGROV1 ovarian = test system: IGROV1 ovarian
# A498 renal = test system: A498 renal
# U251 CNS = test system: U251 CNS
# A549 NSCLC = test system: A549 NSCLC
# UO-31 renal = test system: UO-31 renal
# PC-3 prostate = test system: PC-3 prostate
# SK-OV-3 ovarian = test system: SK-OV-3 ovarian
# MDA-MB-231 breast = test system: MDA-MB-231 breast
# OVCAR-4 ovarian = test system: OVCAR-4 ovarian
# SF-268 CNS = test system: SF-268 CNS
# K-562 leukemia = test system: K-562 leukemia
# LOX IMVI melanoma = test system: LOX IMVI melanoma
# MDA-MB-435 = test system: MDA-MB-435
# SN12C renal = test system: SN12C renal
# ACHN renal = test system: ACHN renal
# CAKI-1 renal = test system: CAKI-1 renal
# RXF 393 renal = test system: RXF 393 renal
compound,measurement,setting,value
CC(Nc1ncnc2ccc(-c3cnc(N)nc3)cc12)c1ccccc1 (stereo not drawn),GI50,SF-539 CNS,6.2 µM
same,TGI,SF-539 CNS,19.2 µM
same,GI50,KM12 colon,7.91 µM
same,TGI,KM12 colon,36.3 µM
same,GI50,TK-10 renal,1.59 µM
same,TGI,TK-10 renal,14.2 µM
same,GI50,NCI-H226 lung,3.57 µM
same,TGI,NCI-H226 lung,22 µM
same,GI50,MCF7 breast,4.1 µM
same,TGI,MCF7 breast,24.4 µM
same,GI50,HCC-2998 colon,8.05 µM
same,TGI,HCC-2998 colon,50.8 µM
same,GI50,BT-549 breast,2.22 µM
same,TGI,BT-549 breast,12 µM
same,GI50,NCI-H522 lung,4.9 µM
same,TGI,NCI-H522 lung,> 100 µM
same,GI50,OVCAR-3 ovarian,4.59 µM
same,TGI,OVCAR-3 ovarian,20.1 µM
same,GI50,DU-145 prostate,4.34 µM
same,TGI,DU-145 prostate,> 100 µM
same,GI50,SF-295 CNS,4.5 µM
same,TGI,SF-295 CNS,27 µM
same,GI50,SNB-19 CNS,9.29 µM
same,TGI,SNB-19 CNS,44.1 µM
same,GI50,HS 578T breast,2.15 µM
same,TGI,HS 578T breast,8.64 µM
same,GI50,SK-MEL-2 melanoma,20.4 µM
same,TGI,SK-MEL-2 melanoma,> 100 µM
same,GI50,MOLT-4 leukemia,5.37 µM
same,TGI,MOLT-4 leukemia,> 100 µM
same,GI50,HCT-15 colon,4.12 µM
same,TGI,HCT-15 colon,54.6 µM
same,GI50,OVCAR-5 ovarian,3.4 µM
same,TGI,OVCAR-5 ovarian,37.5 µM
same,GI50,NCI/ADR-RES ovarian,9.42 µM
same,TGI,NCI/ADR-RES ovarian,47.3 µM
same,GI50,UACC-62 melanoma,4.48 µM
same,TGI,UACC-62 melanoma,18.2 µM
same,GI50,T-47D breast,1.91 µM
same,TGI,T-47D breast,46.4 µM
same,GI50,SR leukemia,4.08 µM
same,TGI,SR leukemia,> 100 µM
same,GI50,MALME-3M melanoma,3.03 µM
same,TGI,MALME-3M melanoma,19.5 µM
same,GI50,HOP-92 NSCLC,1.04 µM
same,TGI,HOP-92 NSCLC,5.62 µM
same,GI50,SK-MEL-5 melanoma,7.28 µM
same,TGI,SK-MEL-5 melanoma,20.8 µM
same,GI50,OVCAR-8 ovarian,10.8 µM
same,TGI,OVCAR-8 ovarian,30.2 µM
same,GI50,SW-620 colon,15.2 µM
same,TGI,SW-620 colon,51.7 µM
same,GI50,786-0 renal,5.33 µM
same,TGI,786-0 renal,> 100 µM
same,GI50,RPMI-8226 leukemia,4.66 µM
same,TGI,RPMI-8226 leukemia,42.9 µM
same,GI50,NCI-H23 lung,9.2 µM
same,TGI,NCI-H23 lung,37.4 µM
same,GI50,CCRF-CEM leukemia,7.7 µM
same,TGI,CCRF-CEM leukemia,> 100 µM
same,GI50,COLO 205 colon,13.5 µM
same,TGI,COLO 205 colon,47.5 µM
same,GI50,M14 melanoma,6.76 µM
same,TGI,M14 melanoma,31.6 µM
same,GI50,SK-MEL-28 melanoma,9.05 µM
same,TGI,SK-MEL-28 melanoma,53.1 µM
same,GI50,UACC-257 melanoma,23.9 µM
same,TGI,UACC-257 melanoma,> 100 µM
same,GI50,HT29 colon,8.41 µM
same,TGI,HT29 colon,46.4 µM
same,GI50,EKVX NSCLC,1.97 µM
same,TGI,EKVX NSCLC,10.4 µM
same,GI50,SNB-75 CNS,2.76 µM
same,TGI,SNB-75 CNS,23.1 µM
same,GI50,HCT-116 colon,8.01 µM
same,TGI,HCT-116 colon,24.3 µM
same,GI50,HL-60(TB) leukemia,14.8 µM
same,TGI,HL-60(TB) leukemia,43.7 µM
same,GI50,NCI-H460 lung,4.79 µM
same,TGI,NCI-H460 lung,31.1 µM
same,GI50,HOP-62 NSCLC,5.76 µM
same,TGI,HOP-62 NSCLC,> 100 µM
same,GI50,IGROV1 ovarian,1.95 µM
same,TGI,IGROV1 ovarian,8.26 µM
same,GI50,A498 renal,1.42 µM
same,TGI,A498 renal,6.52 µM
same,GI50,U251 CNS,6.92 µM
same,TGI,U251 CNS,60 µM
same,GI50,A549 NSCLC,6.48 µM
same,TGI,A549 NSCLC,> 100 µM
same,GI50,UO-31 renal,1.29 µM
same,TGI,UO-31 renal,16.4 µM
same,GI50,PC-3 prostate,4.05 µM
same,TGI,PC-3 prostate,> 100 µM
same,GI50,SK-OV-3 ovarian,6.67 µM
same,TGI,SK-OV-3 ovarian,> 100 µM
same,GI50,MDA-MB-231 breast,3.38 µM
same,TGI,MDA-MB-231 breast,15.5 µM
same,GI50,OVCAR-4 ovarian,4.55 µM
same,TGI,OVCAR-4 ovarian,43.4 µM
same,GI50,SF-268 CNS,5.26 µM
same,TGI,SF-268 CNS,34.5 µM
same,GI50,K-562 leukemia,6.32 µM
same,TGI,K-562 leukemia,> 100 µM
same,GI50,LOX IMVI melanoma,4.26 µM
same,TGI,LOX IMVI melanoma,16.9 µM
same,GI50,MDA-MB-435,11.1 µM
same,TGI,MDA-MB-435,42 µM
same,GI50,SN12C renal,2.9 µM
same,TGI,SN12C renal,15.7 µM
same,GI50,ACHN renal,3.02 µM
same,TGI,ACHN renal,18.6 µM
same,GI50,CAKI-1 renal,3.17 µM
same,TGI,CAKI-1 renal,17.8 µM
Cc1[nH]nc2ccc(-c3nc4cnc(N5CCN(C)CC5)cn4c3Nc3ccc(F)cc3Br)cc12,GI50,SF-539 CNS,1.79 µM
same,TGI,SF-539 CNS,3.61 µM
same,GI50,KM12 colon,3.67 µM
same,TGI,KM12 colon,16.4 µM
same,GI50,TK-10 renal,2.82 µM
same,TGI,TK-10 renal,8.83 µM
same,GI50,MCF7 breast,1.48 µM
same,TGI,MCF7 breast,2.9 µM
same,GI50,HCC-2998 colon,2.11 µM
same,TGI,HCC-2998 colon,5.18 µM
same,GI50,NCI-H522 lung,2.01 µM
same,TGI,NCI-H522 lung,4.72 µM
same,GI50,DU-145 prostate,1.99 µM
same,TGI,DU-145 prostate,3.93 µM
same,GI50,SF-295 CNS,1.61 µM
same,TGI,SF-295 CNS,3.29 µM
same,GI50,SNB-19 CNS,2.87 µM
same,TGI,SNB-19 CNS,10.4 µM
same,GI50,HS 578T breast,2.44 µM
same,TGI,HS 578T breast,6.43 µM
same,GI50,SK-MEL-2 melanoma,2.84 µM
same,TGI,SK-MEL-2 melanoma,7.9 µM
same,GI50,MOLT-4 leukemia,2.85 µM
same,TGI,MOLT-4 leukemia,9.43 µM
same,GI50,HCT-15 colon,1.73 µM
same,TGI,HCT-15 colon,3.38 µM
same,GI50,OVCAR-5 ovarian,2.38 µM
same,TGI,OVCAR-5 ovarian,7.94 µM
same,GI50,UACC-62 melanoma,1.64 µM
same,TGI,UACC-62 melanoma,3.22 µM
same,GI50,T-47D breast,1.95 µM
same,TGI,T-47D breast,5.07 µM
same,GI50,SR leukemia,0.303 µM
same,TGI,SR leukemia,> 100 µM
same,GI50,MALME-3M melanoma,1.51 µM
same,TGI,MALME-3M melanoma,3.14 µM
same,GI50,HOP-92 NSCLC,1.59 µM
same,TGI,HOP-92 NSCLC,3.67 µM
same,GI50,SK-MEL-5 melanoma,1.74 µM
same,TGI,SK-MEL-5 melanoma,3.25 µM
same,GI50,OVCAR-8 ovarian,2.29 µM
same,TGI,OVCAR-8 ovarian,6.31 µM
same,GI50,SW-620 colon,2.9 µM
same,TGI,SW-620 colon,11 µM
same,GI50,RPMI-8226 leukemia,2.16 µM
same,TGI,RPMI-8226 leukemia,5.07 µM
same,GI50,NCI-H23 lung,1.83 µM
same,TGI,NCI-H23 lung,3.6 µM
same,GI50,CCRF-CEM leukemia,2.25 µM
same,TGI,CCRF-CEM leukemia,7.08 µM
same,GI50,SK-MEL-28 melanoma,1.69 µM
same,TGI,SK-MEL-28 melanoma,3.2 µM
same,GI50,HT29 colon,2.24 µM
same,TGI,HT29 colon,5.08 µM
same,GI50,EKVX NSCLC,1.87 µM
same,TGI,EKVX NSCLC,5.39 µM
same,GI50,SNB-75 CNS,1.22 µM
same,TGI,SNB-75 CNS,2.57 µM
same,GI50,HL-60(TB) leukemia,1.79 µM
same,TGI,HL-60(TB) leukemia,4.81 µM
same,GI50,NCI-H460 lung,2.03 µM
same,TGI,NCI-H460 lung,4.35 µM
same,GI50,HOP-62 NSCLC,2.23 µM
same,TGI,HOP-62 NSCLC,6.69 µM
same,GI50,IGROV1 ovarian,1.69 µM
same,TGI,IGROV1 ovarian,3.46 µM
same,GI50,A498 renal,1.32 µM
same,TGI,A498 renal,2.78 µM
same,GI50,U251 CNS,2.43 µM
same,TGI,U251 CNS,8.04 µM
same,GI50,A549 NSCLC,2.81 µM
same,TGI,A549 NSCLC,20.5 µM
same,GI50,UO-31 renal,1.34 µM
same,TGI,UO-31 renal,2.93 µM
same,GI50,PC-3 prostate,2.47 µM
same,TGI,PC-3 prostate,10.2 µM
same,GI50,SK-OV-3 ovarian,2.08 µM
same,TGI,SK-OV-3 ovarian,5.09 µM
same,GI50,MDA-MB-231 breast,1.84 µM
same,TGI,MDA-MB-231 breast,4.02 µM
same,GI50,SF-268 CNS,1.89 µM
same,TGI,SF-268 CNS,4.11 µM
same,GI50,K-562 leukemia,1.24 µM
same,TGI,K-562 leukemia,7.56 µM
same,GI50,MDA-MB-435,1.87 µM
same,TGI,MDA-MB-435,3.83 µM
same,GI50,SN12C renal,1.65 µM
same,TGI,SN12C renal,3.34 µM
same,GI50,ACHN renal,1.72 µM
same,TGI,ACHN renal,3.39 µM
same,GI50,RXF 393 renal,1.57 µM
same,TGI,RXF 393 renal,3.2 µM
same,GI50,CAKI-1 renal,2.23 µM
same,TGI,CAKI-1 renal,6.51 µM
